Tests used:
[1] = biological target: KRAS G12C (Homo sapiens, UniProt P01116, G12C); test: Cell Activity Assay: accumulation of GDP-bound KRAS G12C in MIAPaCa-2 cells (Raf-1 RBD capture, MSD readout); format: cell-based; parameters: endogenous in cells; host or cells: MIAPaCa-2; conditions: 6 hours, assay limit is 30.00
Method in brief: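 MIAPaCa-2 cells exposed 6 h at 37 °C to 3-fold compound dilutions (0.3% DMSO final), then lysed. Active GTP-KRAS captured on Raf-1 RBD-coated plates, detected with anti-pan-Ras and SULFO-TAG secondary by MSD electrochemiluminescence. Signal normalized to DMSO and maximum inhibition; IC50 from 4-parameter fit.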

[2] = biological target: T1, GDP-loaded KRAS (1-169) G12C, C51S, C80L, C118S (Homo sapiens, UniProt P01116, C118S/C51S/C80L/G12C); test: Mass Spectrometry Reactivity Assay (MSRA): covalent adduct of compound and KRAS G12C, Percent Modification; format: binding; conditions: for MSRA (% modification) 5.0 μM 0.25 hr: 5.0 μM compound; for MSRA (% modification) 10 μM 0.25 hr / MSRA (% modification) 10 μM 0.50 hr: 10 μM compound
T1 construct: GDP-loaded KRAS (1-169) G12C, C51S, C80L, C118S
Method in brief: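 GDP-loaded KRAS(1-169) G12C/C51S/C80L/C118S at 5 μM in 25 mM Hepes pH 7.5, 200 mM NaCl, 5% glycerol incubated at RT with compound (typically 5 or 10 μM final, 1% DMSO). Quenched in formic acid at 1-60 min; intact-protein LC-TOF MS gives % modification = modified/(modified+unmodified).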

SMILES	IC50 [1] [µM]	MSRA (% modification) 5.0 μM 0.25 hr [2] [%]	MSRA (% modification) 10 μM 0.25 hr [2] [%]	MSRA (% modification) 10 μM 0.50 hr [2] [%]
C=CC(=O)N1CCN(c2ncnc3c(Oc4c(C)ccc5[nH]ncc45)cc(Br)cc23)CC1 [Example 13C, 1-(4-{6-bromo-8-[(5-methyl-1H-indazol-4-yl)oxy]quinazolin-4-yl}piperazin-1-yl)prop-2-en-1-one]	3.74			36
C=CC(=O)N1CCN(c2nc(NCCC(=O)NC)nc3c(Oc4c(C)ccc5[nH]ncc45)cccc23)CC1 [Example 13F, N^3-{4-(4-acryloylpiperazin-1-yl)-8-[(5-methyl-1H-indazol-4-yl)oxy]quinazolin-2-yl}-N-methyl-β-alaninamide]	17			26
C=CC(=O)N1CCN(c2nc(OC[C@@H]3C[C@@H](OC)CN3C)nc3c(Oc4c(Cl)c(F)cc5[nH]ncc45)nccc23)CC1 [Example 13H, 1-[4-(8-[(5-chloro-6-fluoro-1H-indazol-4-yl)oxy]-2-{[(2S,4R)-4-methoxy-1-methylpyrrolidin-2-yl]methoxy}pyrido[3,4-d]pyrimidin-4-yl)piperazin-1-yl]prop-2-en-1-one]	0.311	65	83	
C=CC(=O)N1CCN(c2ncnc3c(Oc4c(C)c(Cl)cc5[nH]ncc45)nccc23)CC1 [Example 14A, 1-(4-{8-[(6-chloro-5-methyl-1H-indazol-4-yl)oxy]pyrido[3,4-d]pyrimidin-4-yl}piperazin-1-yl)prop-2-en-1-one]	0.545	46		67

The remaining compounds from weak to strong by IC50 [1], led by results:

IC50 [1] [µM]	MSRA (% modification) 5.0 μM 0.25 hr [2] [%]	MSRA (% modification) 10 μM 0.25 hr [2] [%]	MSRA (% modification) 10 μM 0.50 hr [2] [%]	SMILES
0.777	44			C=CC(=O)N1CCN(c2nc(Oc3cccnc3)nc3c(Oc4c(Cl)c(F)cc5[nH]ncc45)nccc23)CC1 [Example 13I, 1-(4-{8-[(5-chloro-6-fluoro-1H-indazol-4-yl)oxy]-2-(pyridin-3-yloxy)pyrido [3,4-d]pyrimidin-4-yl}piperazin-1-yl)prop-2-en-1-one]
0.452		75	79	C=CC(=O)N1CCN(c2nc(OCCN(C)C)nc3c(Oc4c(Cl)c(C)cc5[nH]ncc45)cc(Cl)cc23)CC1 [Example 13E, 1-(4-{6-chloro-8-[(5-chloro-6-methyl-1H-indazol-4-yl)oxy]-2-[2-(dimethylamino)ethoxy]quinazolin-4-yl}piperazin-1-yl)prop-2-en-1-one]
0.394		44	69	C=CC(=O)N1CCN(c2ncnc3c(Oc4c(Br)c(C)cc5[nH]ncc45)nccc23)CC1 [Example 13A, 1-(4-{8-[(5-bromo-6-methyl-1H-indazol-4-yl)oxy]pyrido[3,4-d]pyrimidin-4-yl}piperazin-1-yl)prop-2-en-1-one]
0.16	19	74		C=CC(=O)N1CCN(c2nc(OC[C@@H]3CCCN3C)nc3c(Oc4c(C)c(Cl)cc5[nH]ncc45)nccc23)CC1 [Example 13B, 1-[4-(8-[(6-chloro-5-methyl-1H-indazol-4-yl)oxy]-2-{[(2S)-1-methylpyrrolidin-2-yl]methoxy}pyrido[3,4-d]pyrimidin-4-yl)piperazin-1-yl]prop-2-en-1-one]
0.16	70	78	80	C=CC(=O)N1CCN(c2nc(OCC(C)(C)O)nc3c(Oc4c(Cl)c(F)cc5[nH]ncc45)nc(Cl)cc23)CC1 [Example 13G, 1-(4-{6-chloro-8-[(5-chloro-6-fluoro-1H-indazol-4-yl)oxy]-2-(2-hydroxy-2-methylpropoxy)pyrido[3,4-d]pyrimidin-4-yl}piperazin-1-yl)prop-2-en-1-one]
0.12	78			C=CC(=O)N1CCN(c2nc(OCC3(F)CCN(C)CC3)nc3c(Oc4c(Cl)c(F)cc5[nH]ncc45)nccc23)CC1 [Example 12I, 1-(4-{8-[(5-chloro-6-fluoro-1H-indazol-4-yl)oxy]-2-[(4-fluoro-1-methyl-piperidin-4-yl)methoxy]pyrido [3,4-d]pyrimidin-4-yl}piperazin-1-yl)prop-2-en-1-one]

Reference: US10662204B2 (PFIZER INC., priority 2018, dated 2020)
